Article PMC10429771, “Bioorthogonal activation of prodrugs, for the potential treatment of breast cancer, using the Staudinger reaction” (RSC Medicinal Chemistry, 2023)

Assays:
L929 cells [1] = assay: Azide-reporter generation by confocal microscopy (DBCO-Cy5 MFI), L929; type: cell-based, mouse; details: 50 μM, 72 h; DBCO-Cy5 20 μM 1 h
Method: (§1) For azide generation analysis in breast cancer cells and mouse fibroblasts, MCF-7 cells were cultured in 5% fetal bovine serum and RPMI 1640 medium and L929 cells were cultured in 10% fetal bovine serum and DMEM medium at 37 °C in a 5% CO2 incubator.
(§2) For fluorescence quantification, 4 × 10^4 cell per mL of MCF-7 and 1 × 10^4 cell per mL of L929 cells were seeded into a 35 mm covered glass-bottom dishes and incubated with 50 μM Ac4ManNAz-, 4-, and 5-containing medium for 72 h at 37 °C CO2 incubator, respectively. Then to visualize the azide groups, the sugar-containing medium was removed and the cells were washed twice with PBS and further incubated with 20 μM dibenzylcyclooctyne-conjugated Cy5 (DBCO-Cy5)-containing fresh medium for 1 h at 37 °C. Then, the cells were washed twice with PBS and fixed with formaldehyde fixative for 10 min in dark conditions. After fixation, the cells were washed twice with PBS and mounted with 4,6-diamidino-2-phenylindole (DAPI) (5 μg mL^−1). The cells were observed using a confocal laser microscope (Nikon A1R Confocal with 405, 445, 488, 514, 561 and 640 nm lasers). The mean fluorescence intensity was analyzed using ImageJ software and the data were represented as absolute values.

MCF-7 cells [2] = assay: Azide-reporter generation by confocal microscopy (DBCO-Cy5 MFI), MCF-7; type: cell-based, human; details: breast cancer MCF-7 versus normal fibroblast L929
Method: as §1, §2

L929 cells [3] = assay: Azide-reporter generation by Western blotting, L929; type: cell-based, mouse; details: 50 μM, 72 h; lysates reacted with phosphine-PEG3-biotin
Method: as §1
To analyse the engineered azide groups in glycoproteins in vitro, 4 × 10^4 cell per mL of MCF-7 and 1 × 10^4 cell per mL of L929 cells were seeded into 6-well plates and incubated with 50 μM Ac4ManNAz-, 4-, and 5-containing medium for 72 h at 37 °C CO2 incubator, respectively. Cells were then washed twice with ice cold PBS and lysed using ice cold RIPA buffer (Thermo Fisher Scientific, UK) with 1% protease inhibitor cocktail. Lysates were centrifuged at 12 000 rpm for 10 min at 4 °C to remove cell debris. The total protein of each sample was quantified by DC assay (Bio-rad DC Protein Assay Kit, Bio-rad, UK). The lysates were then incubated with 0.5 μM phosphine-PEG3-biotin (Thermo Fisher Scientific, UK) for 12 h at room temperature. The proteins from each sample were mixed with 1× sodium dodecyl sulfate (SDS) gel-loading buffer (125 mol L^−1 Tris, pH 6.8, 5% glycerol, 2% SDS, 1% β-mercaptoethanol, and 0.006% bromophenol blue) and boiled for 5 min. Then, 20 μg of proteins was separated by 8% SDS – polyacrylamide gel electrophoresis and transferred onto PVDF membranes. The membranes were blocked for 1.5 h at room temperature in 0.5% bovine serum albumin (BSA) containing 1× TBST solution (10 mol L^−1 Tris, pH 7.4, 100 mol L^−1 NaCl, and 0.1% Tween 20). Then, the membranes were incubated with streptavidin-HRP (Cell Signalling Technology, UK) containing 1× TBST solution for overnight at 4 °C. Next day, the membranes were washed three times using 1× TBST and protein band was detected with an ECL system.

[4] = Cell viability of L929 cells after azide-modified sugars (MTT); type: cell-based; details: mouse, L929 fibroblast cells, 50 μM sugar, no change compared to control
MCF-7 cells [5] = assay: MTT assay, prodrug activation and anticancer activity in MCF-7 cells; type: cell-based, human; details: for IC50: Homo sapiens, MTT, mean ± SEM (n = 3)
Method: (§3) The in vitro prodrug activation and anticancer activity of compounds 10 and 12 was determined using the MTT assay. MCF-7 cells or L929 cells were incubated with 50 μM Ac4ManNAz-, 4-, and 5-containing RPMI medium or 50 μM Ac4ManNAz-, 4-, and 5-containing DMEM medium, respectively for 72 h at 37 °C CO2 incubator as described above. Then, the engineered and non-engineered MCF-7 cells or L929 cells were seeded on 96-well plates (4 × 10^4 cells per mL) or (1 × 10^5 cells per mL), respectively and incubated at 37 °C for 24 h. Cells were then treated with a range of concentration of both prodrugs 10 and 12 (0.001–10 μM) and incubated for 72 h. After incubation, the treatments-containing medium was removed and 20 μL of 0.5 mg mL^−1 MTT in PBS solution was added in each well for 4 h. The resulting formazan crystals were dissolved in 100 μL of DMSO after carefully removing the MTT solution. The absorbance was recorded at 570 nm by InfiniteF50 TECAN microplate reader. The cells without any treatment were used as the control. Assays were performed in three replicates, which the statistical mean and standard deviation were used to estimate the cell viability. IC50 (inhibitory concentration to induce 50% cell death) values were determined using GraphPad Prism 8.0.2 according to the fitted data.

L929 cells [6] = assay: MTT assay, prodrug activation and cytotoxicity in L929 cells; type: cell-based, mouse; details: for prodrug activation on L929 cells: L929 cells pre-treated with azido-sialic acid derivatives 4 and 5, 50 μM; for IC50: Mus musculus, MTT, mean ± SEM (n = 3); for IC50 on L929 cells relative to MCF-7 cells: non-engineered cells, L929 IC50 higher than MCF-7 IC50
Method: as §3

[7] = MCF7, 4-engineered MCF-7 cells (50 μM 4, 72 h pre-treatment)
[8] = MCF7, 5-engineered MCF-7 cells (50 μM 5, 72 h pre-treatment)
[9] = MCF7, 72 h, non-engineered MCF-7 cells, 72 h
[10] = MCF7, Ac4ManNAz-engineered MCF-7 cells (50 μM, 72 h pre-treatment)
[11] = L929, 4-engineered L929 cells (50 μM 4, 72 h pre-treatment)
[12] = L929, 5-engineered L929 cells (50 μM 5, 72 h pre-treatment)
[13] = L929, 72 h, non-engineered L929 cells, 72 h
[14] = L929, Ac4ManNAz-engineered L929 cells (50 μM, 72 h pre-treatment)

IC50 (MCF-7 cells [5]; [9]) [µM] | SMILES | fluorescence in L929 cells (confocal) (L929 cells [1]) | higher azide expression on MCF-7 cells versus L929 cells (MCF-7 cells [2]) [fold] | azide incorporation in L929 cells (Western blotting) (L929 cells [3]) | viability at 50 µM [4] [%] | IC50 (MCF-7 cells [5]; [7]) [µM] | IC50 (MCF-7 cells [5]; [8]) [µM] | IC50 (MCF-7 cells [5]; [10]) [µM] | prodrug activation on L929 cells (L929 cells [6]) | IC50 (L929 cells [6]; [11]) [µM] | IC50 (L929 cells [6]; [12]) [µM] | IC50 (L929 cells [6]; [13]) [µM] | IC50 (L929 cells [6]; [14]) [µM] | IC50 on L929 cells relative to MCF-7 cells (L929 cells [6]) | decrease in potency of prodrug versus doxorubicin (MCF-7 cells [5]; non-engineered MCF-7 cells, IC50 of prodrug 12 vs doxorubicin 11)
 | CC(=O)N[C@H]1[C@H]([C@H](O)[C@H](O)CN=[N+]=[N-])OC(O)(C(=O)O)C[C@@H]1O (stereo in doubt) [Compound 4, 9-Azido-5-acetamido-3,5,9-trideoxy-β-D-glycero-D-galacto-2-nonulosonic acid] | did not show any fluorescence | ~17 | did not show any azide-reporter generation | 92.4 ± 1.6 |  |  |  |  |  |  |  |  |  | 
 | CC(=O)OC[C@H]1OC(OC(C)=O)[C@@H](NC(=O)CN=[N+]=[N-])[C@@H](OC(C)=O)[C@@H]1OC(C)=O (stereo partly drawn) [Ac4ManNAz, Tetra-O-acetyl azidomannosamine, reference compound] |  |  | caused the azide incorporation | 97.5 ± 5.2 |  |  |  |  |  |  |  |  |  | 
4.6 ± 0.19 | COc1cccc2c1C(=O)c1c(O)c3c(c(O)c1C2=O)C[C@@](O)(C(=O)CO)C[C@@H]3OC1C[C@@H](NC(=O)c2ccccc2P(c2ccccc2)c2ccccc2)[C@@H](O)[C@@H](C)O1 (stereo partly drawn) [Dox-prodrug 12, 2-(Diphenylphosphino)-N-((2R,3R,4R)-3-hydroxy-2-methyl-6-(((1S,3S)-3,5,12-trihydroxy-3-(2-hydroxyacetyl)-10-methoxy-6,11-dioxo-1,2,3,4,6,11-hexahydrotetracen-1-yl)oxy)tetrahydro-2H-pyran-4-yl)benzamide] |  |  |  |  | 0.5 ± 0.03 | 1.6 ± 0.09 | 0.2 ± 0.01 | No activation | 11.2 ± 1.04 | 10.7 ± 0.22 | 11.3 ± 0.23 | 7.7 ± 0.26 | approximately 2 fold | more than 20 fold
 | CC(=O)N[C@H]1[C@H]([C@H](OC(C)=O)[C@@H](CN=[N+]=[N-])OC(C)=O)O[C@@](OC(C)=O)(C(=O)O)C[C@@H]1OC(C)=O [Compound 5, 9-Azido-5-acetamido-2,4,7,8-tetracetyl-3,5,9-trideoxy-β-D-glycero-D-galacto-2-nonulosonic acid] | did not show any fluorescence | ~17 | did not show any azide-reporter generation | 122 ± 5.5 |  |  |  |  |  |  |  |  |  | 
0.2 ± 0.03 | COc1cccc2c1C(=O)c1c(O)c3c(c(O)c1C2=O)C[C@@](O)(C(=O)CO)C[C@@H]3O[C@H]1C[C@H](N)[C@H](O)[C@H](C)O1 [Doxorubicin 11, doxorubicin, reference compound] |  |  |  |  |  |  |  |  |  |  | 2.04 ± 0.009 |  |  | 

SMILES | IC50 (MCF-7 cells [5]; [9]) [µM] | fluorescence in L929 cells (confocal) (L929 cells [1]) | higher azide expression on MCF-7 cells versus L929 cells (MCF-7 cells [2]) [fold] | azide incorporation in L929 cells (Western blotting) (L929 cells [3]) | viability at 50 µM [4] [%] | IC50 (MCF-7 cells [5]; [7]) [µM] | IC50 (MCF-7 cells [5]; [8]) [µM] | IC50 (MCF-7 cells [5]; [10]) [µM] | prodrug activation on L929 cells (L929 cells [6]) | IC50 (L929 cells [6]; [11]) [µM] | IC50 (L929 cells [6]; [12]) [µM] | IC50 (L929 cells [6]; [13]) [µM] | IC50 (L929 cells [6]; [14]) [µM] | IC50 on L929 cells relative to MCF-7 cells (L929 cells [6]) | decrease in potency of prodrug versus doxorubicin (MCF-7 cells [5]; non-engineered MCF-7 cells, IC50 of prodrug 12 vs doxorubicin 11)
O=C(Nc1ccc(N(CCCl)CCCl)cc1)c1ccccc1P(c1ccccc1)c1ccccc1 [N-mustard prodrug 10, N-(4-(Bis(2-chloroethyl)amino)phenyl)-2-(diphenylphosphaneyl)benzamide] | 20.8 ± 1.27 |  |  |  |  | 2.1 ± 1.11 | 9.3 ± 0.63 | 0.6 ± 0.08 | No activation | 29.9 ± 0.69 | 29.7 ± 1.2 | 31.4 ± 0.44 | 21.1 ± 0.58 | approximately 2 fold | 
